In patent publication US11726087B2, “Methods, compositions, and kits for detection of aspergillosis” (priority 2013, dated 2023):
Entries after “also recorded” stand apart in the source; their conditions may differ. Positions of bridges follow the written chain, without caps; N, C: chain ends. Non-standard residues stand in square brackets, D forms with d. Residues, ends and D or L forms follow the SMILES beside them. No end group written: not given here. *: point of attachment. 5FAM = O=C1OC2(c3ccc(O)cc3Oc3cc(O)ccc32)c2ccc(C(=O)*)cc21; DABCYL = 4-(dimethylaminoazo)benzene-4-carboxy; Sta = CC(C)C[C@H](N)[C@@H](O)CC(=O)O; Isovaleryl = CC(C)CC(=O)*

Key:
Assay type in all cases: biochemical, A. fumigatus
[1] = target: T1, native Asp f2 (Aspergillus fumigatus, UniProt P79017); conditions: for effect of protease inhibitors on proteolytic activity of native Asp f2: 50 μM inhibitor, FluHSA2 substrate
T1 construct: beads were incubated with native or recombinant Asp f2; endogenous in cells; host or cells: Aspergillus fumigatus (preparation of the native protein not described for this assay)
Experimental: (§1) A novel bead-based assay was developed for detecting Asp f2 proteolytic activity. […] Cyanogen bromide (CNBr)-activated sepharose beads were swelled in ice-cold HCl (1 mM). Beads (1.0 g) were incubated with 3.0 mg of 5D7A1 in Coupling Buffer (NaHCO3, 0.1 M and NaCl, 0.5 M, pH 8.3-8.5) and rotated for two hours at 22° C. or for 16 hours at 4° C. Beads were blocked with 0.1 M ethanolamine, pH 8.0, then washed with buffers of alternating pH (first with Coupling Buffer, pH 8.5, then with a low pH buffer (sodium acetate, 0.1 M, NaCl, 0.5 M, pH 4.0)). These dual washes were repeated four times. Lastly, beads were resuspended in ammonium bicarbonate (100 mM), lyophilized and stored at 4° C.
(§2) FluHSA2 comprises the peptide of SEQ ID NO:5 conjugated to 5-Fam at the alpha-amino group of the threonine at the N-terminus of the peptide and to DABCYL at the epsilon amino group of the lysine side chain at the C-terminus of the peptide. Upon excitation, the DABCYL suppresses the fluorescence emission of the 5-Fam labeled peptides when the peptides are not cleaved and the fluorescent label and DABCYL remain close together. However, when the peptide is cleaved by Asp f2, the fluorescent label and DABCYL are separated and the fluorescent label emits light energy upon excitation. For each replicate (including negative controls), 100 μL of the antibody coupled bead suspension was transferred into 0.5 mL reaction buffer (FluHSA2 (FIG. 4-5; SEQ ID NO: 5), […] sodium phosphate, 25 mM, NaCl, 100 mM, pH 7.2. Tubes were incubated in the dark for two hours at 37° C. or for 16 hours at 22° C. on a rotary shaker at 250 rpm. Fluorescence was measured at Excitation (Ex) 485 nm/Emission (Em) 535 nm in a black 96-well micro titer plate.
(§3) Diethylpyrocarbonate (DEPC) derivatization of histidines results in the chemical modification of histidines in proteins and is used to study the importance of histidyl residues in enzymes. Using the materials and methods described in Example 1, anti-Asp f2 (5D7A1)-bound beads were incubated with native or recombinant Asp f2 in the presence or absence of DEPC (30 μM) and incubated for one hour at 22° C. prior to reaction with FluHSA2. Samples were then incubated with 10 μM of FluHSA2 for 16 hours at 22° C. and fluorescence was measured as described above. Cleavage of FluHSA2 was detected in the presence or absence of DEPC to test the proteolytic activity of native and recombinant Asp f2.
Anti-Asp f2 (5D7A1)-bound beads were incubated with native or recombinant Asp f2 in the presence or absence of 0.5 mM zinc chloride or 50 μM of various inhibitors. Samples were incubated with FluHSA2 and fluorescence was measured as described above. […] Various Asp f2 histidine residues, including those located in the ^186HRLYH motif, were mutated to alanine (FIG. 12; H186A and H190A are located in the HRLYH motif), and mutant or wild-type Asp f2 was incubated with anti-Asp f2 (5D7A1)-bound beads as described above, followed by incubation with FluHSA2.

[2] = target: T2, recombinant Asp f2 (Aspergillus fumigatus, UniProt P79017); conditions: for effect of protease inhibitors on proteolytic activity of recombinant Asp f2: 50 μM inhibitor, FluHSA2 substrate
T2 construct: region fused to Asp f2 residues 32-310 (codon optimized for expression in E. coli); Trx-SMT3 N-terminal linker (thioredoxin, His6 tags, SMT3) (N, cleaved yes); made in house; host or cells: Escherichia coli
Experimental: as §1, §2
The fusion protein comprised an N-terminal linker (Trx-SMT3 N-terminal linker) region fused to Asp f2 residues 32-310 (codon optimized for expression in E. coli; FIG. 14) via a Ubiquitin-like-specific protease 1 (ULP1) cleavage site located between SMT3 and Asp f2. The Trx-SMT3 N-terminal linker contained the following from N- to C-terminus: thioredoxin (Trx)-glycine-serine-linker-His6-tag-linkers-another His6-tag-SMT3. Trx was added to improve solubility of the construct and a yeast SUMO (Smt3) was added to help enhance expression and promote solubility of Asp f2. Following purification using a His6-tag specific nickel-NTA column, Asp f2 was activated by cleaving the Trx-SMT3 N-terminal linker off using UPL1.
as §3
Anti-Asp f2 (5D7A1)-bound beads were incubated with native or recombinant Asp f2 in the presence or absence of 0.5 mM zinc chloride or 50 μM of various inhibitors. Samples were incubated with FluHSA2 and fluorescence was measured as described above.

[3] = target: T1, native Asp f2; assay: Cleavage of fluorogenic substrates by bead-bound native Asp f2
Experimental: Cleavage specificity of the novel FluHSA peptide was tested using Asp f2 and another Aspergillus protein, Asp f3. CNBr-activated sepharose beads were prepared as described in Example 1 and incubated with either the anti-Asp f2 monoclonal antibody 5D7A1 or an anti-Asp f3 rabbit polyclonal antibody. Anti-Asp f2-immobilized beads were incubated with native Asp f2 and anti-Asp f3-immobilized beads were incubated with native Asp f3. Samples were incubated with FluHSA2 (10 μM) for 16 hours at 22° C. Fluorescence was measured at Ex 485 nm/Em 535 nm in a black 96-well micro titer plate as described above.
The cleavage products of FluHSA2 after reaction with native Asp f2 were investigated by mass spectrometric analysis (MALDI spectra) (FIG. 5). Cleavage by Asp f2 occurred in the C-terminal linear tail section of the peptide resulting in at least 5 cleavage products (FIG. 5).
Peptides other than FluHSA2 were tested for cleavage by Asp f2.

[4] = DEPC 30 μM, one hour at 22° C. before FluHSA2 10 μM, 16 hours at 22° C.

T1 sequence (P79017 32-310): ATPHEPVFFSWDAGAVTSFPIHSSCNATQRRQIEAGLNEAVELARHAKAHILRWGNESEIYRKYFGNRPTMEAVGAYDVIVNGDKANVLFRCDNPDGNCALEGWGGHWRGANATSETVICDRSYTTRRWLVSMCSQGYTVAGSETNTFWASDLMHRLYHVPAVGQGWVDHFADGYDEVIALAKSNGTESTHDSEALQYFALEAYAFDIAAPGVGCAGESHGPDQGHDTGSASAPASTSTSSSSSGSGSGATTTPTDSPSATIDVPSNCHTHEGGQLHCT
T2 sequence (P79017 32-310): as above

CCOC(=O)OC(=O)OCC [DEPC, Diethylpyrocarbonate]
proteolytic activity of native Asp f2 (cleavage of FluHSA2) in the presence of DEPC [1, 4]: inhibited; also recorded: inactive in the presence of DEPC | proteolytic activity of recombinant Asp f2 (cleavage of FluHSA2) in the presence of DEPC [2, 4]: inhibited; also recorded: inactive in the presence of DEPC

c1ccc(CN(CCN(Cc2ccccn2)Cc2ccccn2)Cc2ccccn2)nc1 [TPEN, N,N,N′,N′-tetrakis (2-pyridylmethyl) ethylenediamine]
effect of protease inhibitors on proteolytic activity of native Asp f2 [1]: suppressed | effect of protease inhibitors on proteolytic activity of recombinant Asp f2 [2]: suppressed

O=C(O)CN(CCN(CC(=O)O)CC(=O)O)CC(=O)O [EDTA, ethylenediaminetetraacetic acid]
effect of protease inhibitors on proteolytic activity of native Asp f2 [1]: suppressed | effect of protease inhibitors on proteolytic activity of recombinant Asp f2 [2]: suppressed

CC(C)CC(=O)N[C@H](C(=O)N[C@H](C(=O)N[C@@H](CC(C)C)[C@@H](O)CC(=O)N[C@@H](C)C(=O)N[C@@H](CC(C)C)[C@@H](O)CC(=O)O)C(C)C)C(C)C [pepstatin A] (Isovaleryl-VV[Sta]A[Sta]-OH)
effect of protease inhibitors on proteolytic activity of native Asp f2 [1]: did not inhibit | effect of protease inhibitors on proteolytic activity of recombinant Asp f2 [2]: did not inhibit

NC(=O)CI [IAA, iodoacetamide]
effect of protease inhibitors on proteolytic activity of native Asp f2 [1]: did not inhibit | effect of protease inhibitors on proteolytic activity of recombinant Asp f2 [2]: did not inhibit

O=S(=O)(F)Cc1ccccc1 [PMSF, phenylmethanesulfonylfluoride]
effect of protease inhibitors on proteolytic activity of native Asp f2 [1]: did not inhibit | effect of protease inhibitors on proteolytic activity of recombinant Asp f2 [2]: did not inhibit

aprotinin
effect of protease inhibitors on proteolytic activity of native Asp f2 [1]: did not inhibit | effect of protease inhibitors on proteolytic activity of recombinant Asp f2 [2]: did not inhibit

soybean trypsin inhibitor [SBTI]
effect of protease inhibitors on proteolytic activity of native Asp f2 [1]: did not inhibit | effect of protease inhibitors on proteolytic activity of recombinant Asp f2 [2]: did not inhibit

collagen
degradation of fluorogenic protein substrate by native Asp f2 ([3]; 15 μg/mL, Asp f2 enriched on 5D7A1 beads): capable of degrading

[5-Fam]-TKCATESAVNRRPCFSALK-[DABCYL] (5FAM-TKCATESAVNRRPCFSALK(DABCYL); disulfide 3-14 (inferred)) [FluHSA2]
number of cleavage products after reaction with native Asp f2 (MALDI) [3]: at least 5 | specificity of cleavage by Asp f2 compared with Asp f3 ([3]; FluHSA2 10 μM, 16 hours at 22° C.): high specificity for cleavage by Asp f2 | number of cleavage sites on reaction with native Asp f2 (MALDI) ([3]; sites near the C-terminus): four

c1cnc2c(c1)ccc1cccnc12 [1-10-phenanthroline]
effect of protease inhibitors on proteolytic activity of native Asp f2 [1]: suppressed | effect of protease inhibitors on proteolytic activity of recombinant Asp f2 [2]: suppressed
